Data reported in US9791444B2, “Method for differentially quantifying naturally processed HLA-restricted peptides for cancer, autoimmune and infectious diseases immunotherapy development” (IMMATICS BIOTECHNOLOGIES GMBH, priority 2010, dated 2017).

Test system: CD8+ T cells from HLA-A*24 healthy donors
Assay: In vitro immunogenicity: in vitro priming of CD8+ T cells with pMHC/anti-CD28 coated beads (aAPC), A*2402 multimer staining
Assay type: cell-based, human
Details: HLA-A*2402 restricted, three stimulation cycles; for Positive wells/wells tested [%]: at least 24 wells evaluable for each peptide, positive well = at least 1% specific multimer+ among CD8+ and at least 10x median of negative controls; for Positive donors/donors tested [%]: at least two donors evaluable for each peptide
From the text: To get information regarding the immunogenicity of the TUMAPs of the present invention, we performed investigations using a well established in vitro stimulation platform already described by (Walter, S, Herrgen, L, Schoor, O, Jung, G, Wernet, D, Buhring, H J, Rammensee, H G, and Stevanovic, S; 2003, Cutting edge: predetermined avidity of human CD8 T cells expanded on calibrated MHC/anti-CD28-coated microspheres, J. Immunol., 171, 4974-4978).
In order to perform in vitro stimulations by artificial antigen presenting cells (aAPC) loaded with peptide-MHC complex (pMHC) and anti-CD28 antibody, we first isolated CD8 T cells from fresh HLA-A*24 leukapheresis products of healthy donors obtained from the Blood Bank Tuebingen.
CD8 T cells were either directly enriched from the leukapheresis product or PBMCs (peripheral blood mononuclear cells) were isolated first by using standard gradient separation medium (PAA, Cölbe, Germany). Isolated CD8 lymphocytes or PBMCs were incubated until use in T-cell medium (TCM) consisting of RPMI-Glutamax (Invitrogen, Karlsruhe, Germany) supplemented with 10% heat inactivated human AB serum (PAN-Biotech, Aidenbach, Germany), 100 U/ml Penicillin/100 μg/ml Streptomycin (Cambrex, Cologne, Germany), 1 mM sodium pyruvate (CC Pro, Oberdorla, Germany), 20 μg/ml Gentamycin (Cambrex). 2.5 ng/ml IL-7 (PromoCell, Heidelberg, Germany) and 10 U/ml IL-2 (Novartis Pharma, Nürnberg, Germany) were also added to the TCM at this step. Isolation of CD8+ lymphocytes was performed by positive selection using CD8 MicroBeads (Miltenyi Biotec, Bergisch-Gladbach, Germany).
Generation of pMHC/anti-CD28 coated beads, T-cell stimulations and readout was performed as described before (Walter et al. 4974-78) with minor modifications. Briefly, biotinylated peptide-loaded recombinant HLA-A*2402 molecules lacking the transmembrane domain and biotinylated at the carboxy terminus of the heavy chain were produced. The purified costimulatory mouse IgG2a anti human CD28 Ab 9.3 (Jung, Ledbetter, and Muller-Eberhard 4611-15) was chemically biotinylated using Sulfo-N-hydroxysuccinimidobiotin as recommended by the manufacturer (Perbio, Bonn, Germany).
800.000 beads/200 μl were coated in 96-well plates in the presence of 600 ng biotin anti-CD28 plus 200 ng relevant biotin-pMHC (high density beads). Stimulations were initiated in 96-well plates by co-incubating 1×10^6 CD8+ T cells with 2×10^5 washed coated beads in 200 μl TCM supplemented with 5 ng/ml IL-12 (PromoCell) for 3-4 days at 37° C. Half of the medium was then exchanged by fresh TCM supplemented with 80 U/ml IL-2 and incubating was continued for 3-4 days at 37° C. This stimulation cycle was performed for a total of three times. Finally, multimeric analyses were performed by staining the cells with Live/dead-Aqua dye (Invitrogen, Karlsruhe, Germany), CD8-FITC antibody clone SK1 (BD, Heidelberg, Germany) and PE- or APC-coupled A*2402 MHC multimers. For analysis, a BD LSRII SORP cytometer equipped with appropriate lasers and filters was used. Peptide specific cells were calculated as percentage of total CD8+ cells. Evaluation of multimeric analysis was done using the FlowJo software (Tree Star, Oreg., USA).

Sequence	Positive wells/wells tested [%]	Positive donors/donors tested [%]
AYAIIKEEL (listed as Homo sapiens) [ATAD2-001]	4%	50%
AYLVYTDRL (listed as Homo sapiens) [PPAP2C-001]	54%	100%
FYISPVNKL (listed as Homo sapiens) [AVL9-001]	50%	100%
HYKPTPLYF (listed as Homo sapiens) [SMC4-001]	9%	75%
IYNGKLFDLL (listed as Homo sapiens) [KIF2C-001]	2%	13%
KYNDTFWKEF (listed as Homo sapiens) [HSP90B1-001]	4%	50%
LYQILQGIVF (listed as Homo sapiens) [CDC2-001, gastric cancer associated TUMAP encoded by CDK1]	28%	88%
NYEETFPHI (listed as Homo sapiens) [MUC6-001]	21%	50%
NYLLYVSNF [MMP11-001]	11%	33%
NYLLYVSNF [MST1R-001] (listed as Homo sapiens)	14%	50%
NYLPFIMEL (listed as Homo sapiens) [UCHL5-001]	14%	75%
QYASRFVQL (listed as Homo sapiens) [PLK4-001]	5%	60%
RFLSGIINF (listed as Homo sapiens) [NUF2-002]	4%	50%
RYLWATVTI (listed as Homo sapiens) [ASPM-001]	3%	17%
SYIDVLPEF (listed as Homo sapiens) [MET-006]	22%	63%
SYNPLWLRI (listed as Homo sapiens) [ASPM-002, gastric cancer associated TUMAP encoded by ASPM]	31%	63%
TYGNLLDYL (listed as Homo sapiens) [ABL1-001]	13%	50%
VFDTAIAHLF (listed as Homo sapiens) [SIAH2-001]	4%	50%
VFIFKGNQF (listed as Homo sapiens) [MMP3-001]	1%	13%
VWSDVTPLTF [PROM1-001]	26%	83%
VYGIRLEHF (listed as Homo sapiens) [NUF2-001]	25%	100%
VYIEKNDKL (listed as Homo sapiens) [ERBB3-001]	15%	83%
VYKVVGNLL (listed as Homo sapiens) [IQGAP3-001]	24%	100%
VYTTSYQQI (listed as Homo sapiens) [NFYB-001]	7%	50%
YYNAAGFNKL (listed as Homo sapiens) [UQCRB-001]	38%	100%
